Source: patent US8703797B2, “Condensed ring pyridine compounds as subtype-selective modulators of sphingosine-1-phosphate-2 (S1P2) receptors” (Allergan, Inc., priority 2009, dated 2014)

Tests used:
S1P1 = target: T1, S1P1 (Homo sapiens, UniProt P21453); assay: FLIPR calcium assay, cells expressing S1P1 and a G-protein; type: cell-based
T1 construct: expressed in transfected cells
Description: (§1) After removal of excess dye by washing, the cells are placed in the FLIPR TETRA instrument. Baseline fluorescence readings are taken prior to addition the compound to be tested. Agonists will trigger the receptor to interact with the G-protein, leading to an increase in intracellular calcium. The increase in intracellular calcium causes an increase in the fluorescence of the cells, due to the presence of fluo-4. This fluorescence increase is recorded by the FLIPR TETRA. After the calcium transient signal has decreased towards baseline, the standard agonist sphingosine 1-phosphate is added. If the test compound is an antagonist, an initial calcium signal will not be generated and the antagonist will prevent the generation of a calcium signal from sphingosine 1-phosphate.

S1P3 = target: T2, S1P3 (Homo sapiens, UniProt Q99500); assay: FLIPR calcium assay, cells expressing S1P3 and a G-protein; type: cell-based
T2 construct: expressed in transfected cells
Description: as §1

S1P2 [1] = target: T3, S1P2 (Homo sapiens, UniProt O95136); assay: S1P2 values marked (33P S1P); type: binding; details: value marked (33P S1P)
S1P2 [2] = target: T3, S1P2; assay: FLIPR calcium assay, cells expressing S1P2 and a G-protein; type: cell-based; details: for FLIPR (% Antagonism) S1P2: antagonism versus sphingosine 1-phosphate
Description: as §1

T2 sequence (Q99500 whole entry, species assumed): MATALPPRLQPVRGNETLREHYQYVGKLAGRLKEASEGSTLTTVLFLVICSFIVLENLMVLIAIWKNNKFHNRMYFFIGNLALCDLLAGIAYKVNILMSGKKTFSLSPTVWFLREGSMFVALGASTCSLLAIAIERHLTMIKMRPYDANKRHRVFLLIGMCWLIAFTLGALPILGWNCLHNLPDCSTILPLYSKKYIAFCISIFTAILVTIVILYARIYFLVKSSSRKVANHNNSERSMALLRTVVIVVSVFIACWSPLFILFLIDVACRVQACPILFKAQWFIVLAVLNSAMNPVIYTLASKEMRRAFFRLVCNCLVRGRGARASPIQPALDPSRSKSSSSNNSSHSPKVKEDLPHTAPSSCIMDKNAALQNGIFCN
T3 sequence (O95136 whole entry, species assumed): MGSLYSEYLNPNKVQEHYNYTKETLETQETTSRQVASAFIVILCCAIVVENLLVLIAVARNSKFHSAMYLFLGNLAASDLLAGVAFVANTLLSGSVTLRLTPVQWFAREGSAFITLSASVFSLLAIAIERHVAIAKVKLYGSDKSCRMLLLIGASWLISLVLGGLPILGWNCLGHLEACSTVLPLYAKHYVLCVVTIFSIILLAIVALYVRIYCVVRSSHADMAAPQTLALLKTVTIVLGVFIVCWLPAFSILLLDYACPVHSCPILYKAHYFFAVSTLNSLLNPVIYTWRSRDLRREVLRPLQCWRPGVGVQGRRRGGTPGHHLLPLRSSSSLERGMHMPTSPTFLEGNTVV
T1 sequence (P21453 whole entry, species assumed): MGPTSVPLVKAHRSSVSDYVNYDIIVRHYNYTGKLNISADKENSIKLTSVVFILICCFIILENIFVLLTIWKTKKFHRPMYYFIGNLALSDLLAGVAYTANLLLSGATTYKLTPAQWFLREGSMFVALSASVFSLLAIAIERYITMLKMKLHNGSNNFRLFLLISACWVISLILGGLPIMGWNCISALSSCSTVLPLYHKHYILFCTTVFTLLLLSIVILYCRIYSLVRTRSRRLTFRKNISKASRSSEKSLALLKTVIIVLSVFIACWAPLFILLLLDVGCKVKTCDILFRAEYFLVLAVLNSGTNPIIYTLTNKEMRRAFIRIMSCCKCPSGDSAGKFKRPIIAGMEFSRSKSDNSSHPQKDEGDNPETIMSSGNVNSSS

Molecule	EC50 (S1P1) [nM]	EC50 (S1P3) [nM]	EC50 (S1P2 [1]) [nM]	EC50 (S1P2 [2]) [nM]	FLIPR (% Antagonism) S1P2 (S1P2 [2])
CCCCOc1cc(NC(=O)NNc2cc(C(C)C)c3c(n2)c(C)nn3C)cc(Cl)n1 [Example 16, N-(2-butoxy-6-chloropyridin-4-yl)-2-(7-isopropyl-1,3-dimethyl-1H-pyrazolo[4,3-b]pyridin-5-yl)hydrazinecarboxamide]	> 8300	> 8300	0.1	–	–
CCCc1cc(NC(=O)NCc2cc(C(C)C)c3c(n2)c(C)nn3C)cc(Cl)n1 [Example 12, 1-(2-chloro-6-propylpyridin-4-yl)-3-((7-isopropyl-1,3-dimethyl-1H-pyrazolo[4,3-b]pyridin-5-yl)methyl)urea]	> 8300	> 8300	2.1	24	(99) %
Cc1cc(NNC(=O)Nc2cc(Cl)cc(Cl)c2)nc2ncccc12 [Example 20, N-(3,5-dichlorophenyl)-2-(4-methyl-1,8-naphthyridin-2-yl)hydrazinecarboxamide]	> 8300	> 8300	196	–	–
Cc1ccc(C)c2c(C(C)C)cc(NNC(=O)Nc3cc(Cl)cc(Cl)c3)nc12 [Example 22, N-(3,5-dichlorophenyl)-2-(4-isopropyl-5,8-dimethylquinolin-2-yl)hydrazinecarboxamide]	> 8300	> 8300	199	–	–
Cc1cc(NNC(=O)Nc2cc(Cl)cc(Cl)c2)nc2c(C)cccc12 [Example 25, N-(3,5-dichlorophenyl)-2-(4,8-dimethylquinolin-2-yl)hydrazinecarboxamide]	> 8300	> 8300	451	–	–
CCOc1cc(NC(=O)NNc2cc(C(C)C)c3c(n2)c(C)nn3C)cc(Cl)n1 [Example 4, N-(2-chloro-6-ethoxypyridin-4-yl)-2-(7-isopropyl-1,3-dimethyl-1H-pyrazolo[4,3-b]pyridin-5-yl)hydrazinecarboxamide]	> 8300	> 8300	1.5	–	–
CC(C)c1cc(NNC(=O)Nc2cc(Cl)cc(Cl)c2)nc2ncccc12 [Example 21, N-(3,5-dichlorophenyl)-2-(4-isopropyl-1,8-naphthyridin-2-yl)hydrazinecarboxamide]	> 8300	> 8300	81	–	–
CCCCOc1cc(NC(=O)NCc2cc(C(C)C)c3c(n2)c(C)nn3C)cc(Cl)n1 [Example 17, 1-(2-butoxy-6-chloropyridin-4-yl)-3-((7-isopropyl-1,3-dimethyl-1H-pyrazolo[4,3-b]pyridin-5-yl)methyl)urea]	> 8300	> 8300	0.1	–	–
1-(2-chloro-6-propoxypyridin-4-yl)-3-((7-isopropyl-1,3-dimethyl-1H-pyrazolo[4,3-b]pyridin-5-yl)methyl)urea [Example 14]	> 8300	> 8300	0.5	–	–
Cc1ccc(C)c2c(C)cc(NNC(=O)Nc3cc(Cl)cc(Cl)c3)nc12 [Example 27, N-(3,5-dichlorophenyl)-2-(4,5,8-trimethylquinolin-2-yl)hydrazinecarboxamide]	> 8300	> 8300	386	–	–
CC(C)c1cc(NNC(=O)Nc2cc(Cl)cc(Cl)c2)nc2ccccc12 [Example 23, N-(3,5-dichlorophenyl)-2-(4-isopropylquinolin-2-yl)hydrazinecarboxamide]	> 8300	> 8300	188	–	–
CCOc1cc(NC(=O)NCc2cc(C(C)C)c3c(n2)c(C)nn3C)cc(Cl)n1 [Example 13, 1-(2-chloro-6-ethoxypyridin-4-yl)-3-((7-isopropyl-1,3-dimethyl-1H-pyrazolo[4,3-b]pyridin-5-yl)methyl)urea]	> 8300	> 8300	0.5	–	–
Cc1cc(NNC(=O)Nc2cc(Cl)nc(Cl)c2)nc2c(C)cccc12 [Example 24, N-(2,6-dichloropyridin-4-yl)-2-(4,8-dimethylquinolin-2-yl)hydrazinecarboxamide]	> 8300	> 8300	390	–	–
Cc1nn(C)c2c(C(C)C)cc(CNC(=O)Nc3cc(Cl)cc(Cl)c3)nc12 [Example 9]	> 8300	> 8300	26.4	149	(52) %
Cc1cc(NNC(=O)Nc2cc(Cl)nc(Cl)c2)nc2ccccc12 [Example 26, N-(2,6-dichloropyridin-4-yl)-2-(4-methylquinolin-2-yl)hydrazinecarboxamide]	> 8300	> 8300	196	–	–
CCOc1cc(NC(=O)NNc2cc(C(C)C)c3c(n2)c(C)nn3C)ccn1 [Example 18, N-(2-ethoxypyridin-4-yl)-2-(7-isopropyl-1,3-dimethyl-1H-pyrazolo[4,3-b]pyridin-5-yl)hydrazinecarboxamide]	> 8300	> 8300	266	–	–

Now from value to molecule:

EC50 (S1P1) [nM]	EC50 (S1P3) [nM]	EC50 (S1P2 [1]) [nM]	EC50 (S1P2 [2]) [nM]	FLIPR (% Antagonism) S1P2 (S1P2 [2])	Molecule
> 8300	> 8300	5	9	(98) %	CCCc1cc(NC(=O)NNc2cc(C(C)C)c3c(n2)c(C)nn3C)cc(Cl)n1 [Example 11, N-(2-chloro-6-propylpyridin-4-yl)-2-(7-isopropyl-1,3-dimethyl-1H-pyrazolo[4,3-b]pyridin-5-yl)hydrazinecarboxamide]
> 8300	> 8300	23.8	118	(91) %	Cc1nn(C)c2c(C(C)C)cc(CNC(=O)Nc3cc(Cl)nc(Cl)c3)nc12 [Example 2, 1-(2,6-dichloropyridin-4-yl)-3-((7-isopropyl-1,3-dimethyl-1H-pyrazolo[4,3-b]pyridin-5-yl)methyl)urea]
> 8300	> 8300	0.2	–	–	CCCOc1cc(NC(=O)NNc2cc(C(C)C)c3c(n2)c(C)nn3C)cc(Cl)n1 [Example 15, N-(2-chloro-6-propoxypyridin-4-yl)-2-(7-isopropyl-1,3-dimethyl-1H-pyrazolo[4,3-b]pyridin-5-yl)hydrazinecarboxamide]
> 8300	> 8300	2.2	11	(95) %	Cc1nn(C)c2c(C(C)C)cc(NNC(=O)Nc3cc(Cl)nc(Cl)c3)nc12 [Example 6, N-(2,6-dichloropyridin-4-yl)-2-(7-isopropyl-1,3-dimethyl-1H-pyrazolo[4,3-b]pyridin-5-yl)hydrazinecarboxamide]
> 8300	> 8300	2.9	47	(96) %	Cc1nn(C)c2c(C(C)C)cc(NNC(=O)Nc3cc(Cl)cc(Cl)c3)nc12 [Example 1, N-(3,5-dichlorophenyl)-2-(7-isopropyl-1,3-dimethyl-1H-pyrazolo[4,3-b]pyridin-5-yl)hydrazinecarboxamide]
> 8300	> 8300	–	135	(82) %	Cc1nn(C)c2c(C)cc(CNC(=O)Nc3cc(Cl)cc(Cl)c3)nc12 [Example 5, 1-(3,5-dichlorophenyl)-3-((1,3,7-trimethyl-1H-pyrazolo[4,3-b]pyridin-5-yl)methyl)urea]
> 8300	> 8300	9.9	58	(98) %	COc1cc(NC(=O)NCc2cc(C(C)C)c3c(n2)c(C)nn3C)cc(Cl)n1 [Example 10, 1-(2-chloro-6-methoxypyridin-4-yl)-3-((7-isopropyl-1,3-dimethyl-1H-pyrazolo[4,3-b]pyridin-5-yl)methyl)urea]
> 8300	> 8300	40	–	–	COc1cc(OC)c(NC(=O)NNc2cc(C(C)C)c3c(n2)c(C)nn3C)cc1Cl [Example 19, N-(5-chloro-2,4-dimethoxyphenyl)-2-(7-isopropyl-1,3-dimethyl-1H-pyrazolo[4,3-b]pyridin-5-yl)hydrazinecarboxamide]
> 8300	> 8300	5.7	8	(99) %	CCCCc1cc(NC(=O)NNc2cc(C(C)C)c3c(n2)c(C)nn3C)cc(Cl)n1 [Example 3, N-(2-butyl-6-chloropyridin-4-yl)-2-(7-isopropyl-1,3-dimethyl-1H-pyrazolo[4,3-b]pyridin-5-yl)hydrazinecarboxamide]
> 8300	> 8300	–	196	(98) %	Cc1nn(C)c2c(C(C)C)cc(NNC(=O)Nc3cc(C(F)(F)F)cc(C(F)(F)F)c3)nc12 [Example 7, N-(3,5-bis(trifluoromethyl)phenyl)-2-(7-isopropyl-1,3-dimethyl-1H-pyrazolo[4,3-b]pyridin-5-yl)hydrazinecarboxamide]
